Where a SMILES comes first, the peptide text is derived from it. [ ]: non-standard residue; d: D form. The star is where a group is joined. Phe(4-Br) = N[C@@H](Cc1ccc(Br)cc1)C(=O)O; Palmitoyl = CCCCCCCCCCCCCCCC(=O)*; NMeL = CN[C@@H](CC(C)C)C(=O)O; Nle = CCCC[C@H](N)C(=O)O; Aib = CC(C)(N)C(=O)O
Tests used:
NEP = NEP (Homo sapiens, UniProt P08473); experiment: Neprilysin degradation assay (LC-MS, quantitative); details: rhNEP, 37° C., up to 72 h, LC-MS
Experimental: (§1) This experiment compared the in vitro NEP stability of the Arg/Leu peptides of the embodiments to native apelin isoforms and their A2 substituted counterparts. Peptides were incubated with recombinant human NEP (rhNEP, Sino Biological) at 37° C. for up to 72 h, and the extent of degradation was analyzed via LC-MS because of the overlapping elution patterns of peptide fragments. […] (McKinnie, S. M. K., et al. ChemBioChem: 17, 1495-1498 (2016)). […] (Dion, N., et al., Biochem. J.: 311, 623-627 (1995); Bateman Jr., R. C., et al., J. Biol. Chem.: 264, 6151-6157 (1989); McMurray, J. J. et al., J. Med.: 371, 993-1004 (2014)).
(§2) Apelin peptides were dissolved in Milli-Q water (1 mM). Recombinant human neprilysin (rhNEP, Sino Biological) was reconstituted in Tris buffer (100 mM Tris, 100 mM NaCl, 10 μM ZnCl2, pH 7.5). To initiate the assay, rhNEP was diluted in Tris buffer (3.1 nM final concentration), and preincubated at 37° C. for 10 minutes prior to the addition of 5 μL of apelin peptide (1 mM) and 1.5 μL internal standard dansyl-Tyr-Val-Gly-OH (1 mM). Aliquots (10 μL) were removed at 0, 1, 4, 24, and 72 h, quenched with 0.1 M EDTA (10 μL), diluted to 100 μL with Milli-Q water and analyzed by LC-MS. Assays were performed in triplicate (n=3) for each time point. Integrated peak areas of the parent apelin peptide and internal standard derived from LC-MS analyses, were extracted using Mass Hunter software (version B.04.00) and compared in positive extracted ion count modus (+EIC, extracted-ion chromatogram). […] (apelin:dansyl-YVG), to the same ratio at the different assay time points. The decrease in apelin:dansyl-YVG ratio was converted to a percentage of cleaved peptide over time.
(§3) The extent of degradation was analyzed via LC-MS because of the overlapping elution patterns of peptide fragments (NEP).
(§4) Native apelin-17 (2) and apelin peptides 5, 54, 56, 57, 58 and 59 were dissolved in Milli-Q water (1 mM). Recombinant human neprilysin (rhNEP, Sino Biological) was reconstituted in Tris buffer (100 mM Tris, 100 mM NaCl, 10 μM ZnCl2, pH 7.5). To initiate the assay, rhNEP was diluted in Tris buffer (3.1 nM final concentration) and preincubated at 37° C. for 10 min prior to the addition of 5 μL of apelin peptide (1 mM) and 1.5 μL of internal standard dansyl-Tyr-Val-Gly-OH (1 mM). Aliquots (10 μL) were removed at 0, 1, 4, 24, and 72 h, quenched with 0.1 M EDTA (10 μL), diluted to 100 μL with Milli-Q water, and analyzed by LC-MS. Assays were performed in triplicate (n=3) for each time point. Integrated peak areas of the parent apelin peptide and internal standard derived from LC-MS analyses were extracted using Mass Hunter software (version B.04.00) and compared in positive extracted ion count modus (+EIC). The extent of proteolysis was determined by comparing the initial (0 h) ratio of the integrated extracted ions of the parent apelin peptide to the internal dansyl-YVG standard (apelin/dansyl-YVG) to the same ratio at the different assay time points. The decrease in apelin/dansyl-YVG ratio was converted to a percentage of cleaved peptide over time.

neprilysin (NEP) = neprilysin (NEP) (Homo sapiens, UniProt P08473); experiment: in vitro; details: human, pH 7.5
Sequence of neprilysin (NEP) (P08473 whole entry): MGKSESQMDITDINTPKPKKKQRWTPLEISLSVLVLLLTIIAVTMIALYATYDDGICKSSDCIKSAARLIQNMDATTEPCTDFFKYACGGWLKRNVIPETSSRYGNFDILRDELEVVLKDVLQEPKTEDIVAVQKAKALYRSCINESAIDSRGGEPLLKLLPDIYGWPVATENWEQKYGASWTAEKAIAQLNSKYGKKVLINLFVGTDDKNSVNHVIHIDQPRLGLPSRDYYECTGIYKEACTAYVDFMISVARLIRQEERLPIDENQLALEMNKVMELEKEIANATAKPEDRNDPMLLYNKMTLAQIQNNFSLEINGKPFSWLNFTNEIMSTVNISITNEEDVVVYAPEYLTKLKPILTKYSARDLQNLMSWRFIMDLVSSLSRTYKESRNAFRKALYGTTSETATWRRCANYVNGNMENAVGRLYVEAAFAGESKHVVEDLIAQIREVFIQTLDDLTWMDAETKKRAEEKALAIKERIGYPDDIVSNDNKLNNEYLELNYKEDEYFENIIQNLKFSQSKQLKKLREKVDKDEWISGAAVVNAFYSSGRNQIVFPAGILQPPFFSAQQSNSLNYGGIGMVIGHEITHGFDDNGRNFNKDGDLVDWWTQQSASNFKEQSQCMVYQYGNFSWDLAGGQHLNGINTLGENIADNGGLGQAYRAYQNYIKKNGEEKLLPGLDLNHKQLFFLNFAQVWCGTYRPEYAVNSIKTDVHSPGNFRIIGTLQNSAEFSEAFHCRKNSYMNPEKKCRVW
Experimental: as §1, §2, §3, §4

[1] = molecular target: Human plasma kallikrein KLKB1 (Homo sapiens, UniProt P03952); experiment: Plasma kallikrein KLKB1 qualitative cleavage assay (MALDI-TOF)
Sequence of Human plasma kallikrein KLKB1 (P03952 20-638): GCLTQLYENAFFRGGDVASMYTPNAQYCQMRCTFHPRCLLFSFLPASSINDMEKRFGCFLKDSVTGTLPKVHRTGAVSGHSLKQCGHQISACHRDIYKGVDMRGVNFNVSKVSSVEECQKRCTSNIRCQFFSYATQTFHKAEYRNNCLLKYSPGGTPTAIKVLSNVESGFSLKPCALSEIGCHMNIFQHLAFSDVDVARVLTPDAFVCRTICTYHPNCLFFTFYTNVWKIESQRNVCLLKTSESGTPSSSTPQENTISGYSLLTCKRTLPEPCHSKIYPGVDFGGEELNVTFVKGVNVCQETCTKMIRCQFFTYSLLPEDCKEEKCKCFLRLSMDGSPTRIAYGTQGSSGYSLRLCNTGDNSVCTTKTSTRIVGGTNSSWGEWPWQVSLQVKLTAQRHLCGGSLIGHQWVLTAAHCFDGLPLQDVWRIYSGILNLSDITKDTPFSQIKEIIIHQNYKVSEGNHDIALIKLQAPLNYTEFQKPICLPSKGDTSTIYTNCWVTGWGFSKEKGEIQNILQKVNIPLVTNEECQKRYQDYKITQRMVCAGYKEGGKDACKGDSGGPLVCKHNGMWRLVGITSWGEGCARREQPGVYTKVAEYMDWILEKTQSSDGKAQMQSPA
Experimental: Native apelin-17 (2) and apelin peptides 5, 56, 57, 58 and 59 were dissolved in Milli-Q water (1 mM). Human plasma kallikrein KLKB1 were each reconstituted in Tris buffer (100 mM TrisHCl, 10 mM CaCl2), 150 mM NaCl) and diluted with Tris buffer (50 mM TrisHCl, 250 mM NaCl) to give a KLKB1 concentration of […]. The KLKB1 enzyme was then preincubated at 37° C. for 10 minutes prior to the addition of 5 μL of apelin peptide (1 mM). Aliquots (1 μL) were taken at 1, 2, 4, 6, 12, 24, 36, and 48 hours and analyzed with MALDI-TOF mass spectrometry to qualitatively determine the time point at which degradation products could be observed (Table 4).

[2] = molecular target: T1, KLKB1 (plasma kallikrein) (Homo sapiens, UniProt P03952); experiment: In vitro KLKB1 stability (half-life); assay type: in vitro ADME; details: human
T1 construct: purchased Novoprotein
T1 sequence (P03952 20-638): as above

in vitro = details: human, plasma
KLKB1 = KLKB1 (Homo sapiens, UniProt P03952); experiment: Kinetic parameters for KLKB1 cleavage; assay type: biochemical; design: purchased Novoprotein; details: enzyme KLKB1
Sequence of KLKB1 (P03952 20-638): as above

[3] = tested on: Angiotensin converting enzyme 2 (ACE2); experiment: in vitro and in vivo; details: cited from earlier work
[4] = tested on: recombinant human neprilysin (rhNEP, Sino Biological); experiment: rhNEP diluted in Tris buffer (100 mM Tris, 100 mM NaCl, 10 μM ZnCl2, pH 7.5), 3.1 nM final concentration; details: 37° C., up to 72 h
[5] = tested on: KLKB1 (rhKLKB1, Novoprotein); experiment: Human plasma kallikrein KLKB1 in Tris buffer, KLKB1 concentration of 2 ng/pL; details: 37° C., up to 48 hours

Sequence of NEP (P08473 whole entry, the tested form may be a part, canonical isoform): as the sequence (P08473 whole entry) above

**Q.** With `CSCC[C@H](NC(=O)[C@@H]1CCCN1C(=O)CNC(=O)[C@H](CCCCN)NC(=O)[C@H](Cc1cnc[nH]1)NC(=O)[C@H](CO)NC(=O)[C@H](CC(C)C)NC(=O)[C@H](CCCNC(=N)N)NC(=O)[C@@H]1CCCN1C(=O)[C@H](CCCNC(=N)N)NC(=O)[C@@H]1CCC(=O)N1)C(=O)N1CCC[C@H]1C(=O)N[C@@H](Cc1ccccc1)C(=O)O` [Peptide 1, reference compound] as the molecule, how does the “in vitro NEP proteolytic stability (in words)” value (NEP) read?
**A.** degraded by NEP at rates comparable to those previously reported

**Q.** Which results are given for `CCCC[C@H](NC(=O)[C@@H]1CCCN1C(=O)CNC(=O)[C@H](CCCCN)NC(=O)[C@H](Cc1c[nH]cn1)NC(=O)[C@H](CO)NC(=O)[C@H](CC(C)C)NC(=O)[C@H](CCCNC(=N)N)NC(=O)[C@@H]1CCCN1C(=O)[C@H](CCCNC(=N)N)NC(=O)[C@H](CCC(N)=O)NC(=O)[C@H](CCCNC(=N)N)NC(=O)[C@H](CCCNC(=N)N)NC(=O)[C@H](Cc1ccccc1)NC(=O)[C@@H](N)CCCCN)C(=O)NC(C)(C)C(=O)N[C@@H](Cc1ccc(Br)cc1)C(=O)O` [Peptide 5] (H-KFRRQRPRLSHKGP[Nle][Aib][Phe(4-Br)]-OH; C-terminus assumed)?
**A.** half-life (neprilysin (NEP)): 1 h; Degradation Onset Timepoint with KLKB1 [1]: <0.5 h; half-life [2]: 0.7 h; remaining at 0.5 h, 80 µM (in vitro): 43 ± 1%; remaining at 1 h, 80 µM (in vitro): 35 ± 5%; Km (KLKB1): 30 ± 4 µM; kcat (KLKB1): 1.4 ± 0.2 s⁻¹

**Q.** For `CCCCCCCCCCCCCCCC(=O)N[C@@H](CCCCN)C(=O)N[C@@H](Cc1ccccc1)C(=O)N[C@@H](CCCNC(=N)N)C(=O)N[C@@H](CCCNC(=N)N)C(=O)N[C@@H](CCC(N)=O)C(=O)N[C@@H](CCCNC(=N)N)C(=O)N1CCC[C@H]1C(=O)N[C@@H](CCCNC(=N)N)C(=O)N[C@@H](CC(C)C)C(=O)N[C@@H](CO)C(=O)N[C@@H](Cc1cnc[nH]1)C(=O)N[C@@H](CCCCN)C(=O)NCC(=O)N1CCC[C@H]1C(=O)N[C@@H](CCCC)C(=O)NC(C)(C)C(=O)N[C@@H](Cc1ccc(Br)cc1)C(=O)O` [Peptide 56] (Palmitoyl-KFRRQRPRLSHKGP[Nle][Aib][Phe(4-Br)]-OH), which half-life (neprilysin (NEP)) is on record?
**A.** 1.5 h

**Q.** And the “Degradation Onset Timepoint with KLKB1” value [1]?
**A.** 1 h

**Q.** What about the half-life [2] of the same molecule?
**A.** 1 h

**Q.** What does the source list for `CCCCCCCCCCCCCCCC(=O)N[C@@H](CCCCN)C(=O)N[C@@H](Cc1ccccc1)C(=O)N[C@@H](CCCNC(=N)N)C(=O)N[C@@H](CCCNC(=N)N)C(=O)N[C@@H](CCC(N)=O)C(=O)N[C@@H](CCCNC(=N)N)C(=O)N1CCC[C@H]1C(=O)N[C@@H](CCCNC(=N)N)C(=O)N(C)[C@@H](CC(C)C)C(=O)N[C@@H](CO)C(=O)N[C@@H](Cc1cnc[nH]1)C(=O)N[C@@H](CCCCN)C(=O)NCC(=O)N1CCC[C@H]1C(=O)N[C@@H](CCCC)C(=O)NC(C)(C)C(=O)N[C@@H](Cc1ccc(Br)cc1)C(=O)O` [Peptide 58] (Palmitoyl-KFRRQRPR[NMeL]SHKGP[Nle][Aib][Phe(4-Br)]-OH)?
**A.** half-life (neprilysin (NEP)): > 30 h; Degradation Onset Timepoint with KLKB1 [1]: 2 h; half-life [2]: 2.1 h

**Q.** For (Pyr)RPRLSHKGPMPF, which cleaved bond [3] is on record?
**A.** Pro-Phe

**Q.** And the not cleaved [4]?
**A.** C-terminal dipeptide excision was not observed

**Q.** With KFRRQRPRLSHKGPMPF as the molecule, how does the cleaved bond [3] read?
**A.** Pro-Phe

**Q.** What about the cleaved bond [5] of the same molecule?
**A.** Arg3-Arg4, <30 min

**Q.** What about the not cleaved [4] of the same molecule?
**A.** C-terminal dipeptide excision was not observed

**Q.** Which cleaved bond [3] does the source give for LVQPRGSRNGPGPWQGGRRKFRR-QRPRLSHKGPMPF here?
**A.** Pro-Phe

**Q.** For “Lys-Phe-Arg-Arg-Gln-Arg-Pro-Arg-NMeLeu-Ser-His-Lys-Gly-Pro-Nle-Aib-paraBrPhe”, which cleaved bond [5] is on record?
**A.** Arg3-Arg4

**Q.** What about the cleaved bond [4] of the same molecule?
**A.** Nle15-Aib16, minor

Reference: US10640545B2 (THE GOVERNORS OF THE UNIVERSITY OF ALBERTA, priority 2017, dated 2020)
